Measured values taken from article PMC5570892, “Indole-based perenosins as highly potent HCl transporters and potential anti-cancer agents” (Scientific Reports, 2017).
Like-named read-outs stand apart in the source and are kept apart here.

Experiments:
MDA-MB-231 cells = assay: MTT cell viability assay; assay type: cell-based; conditions: Homo sapiens, error from three repeats in brackets
Procedure: Herein, we carried out further in vitro studies at the University of Barcelona for the full library of perenosins. Single dose screening for cell viability using the methylthiazoletetrazolium (MTT) colorimetric assay over five different cell lines (cancer cells MCF-7, MDA-MB-231, A549 and SW620, and non-cancerous human cells MCF-10A) was conducted.
While perenosin 5, with pentyl substituent at R3, has similar cell viability effects as 1d, bis-indole perenosin 7 with pentyl substituent at R1 has a moderate degree of late onset by a factor of 7.
S11.1 Cell Lines and Culture Conditions
The human cell lines were obtained from the American Type Culture Collection (ATCC, Manassas VA). Breast adenocarcinoma MDA-MB-231 and MCF-7 cells were maintained in DMEM:F12 media (1:1; Biological Industries, Beit Haemek, Israel), and 10 µg/ml insulin and 50 µM sodium pyruvate from Sigma-Aldrich Chemical Co. (St. Louis, MO) were added to MCF-7 cells. Lung adenocarcinoma A549 and colorectal adenocarcinoma SW620 cells were cultured in DMEM media. All were supplemented with 10% foetal bovine serum (FBS; Invitrogen-Life Technologies, Carlsbad, CA) and 100 U/mL penicillin, 100 µg/mL streptomycin and 2 mM L-glutamine, all from Biological Industries.
Mammary epithelial MCF-10A cells were maintained in DMEM:F12 media supplemented with 5% horse serum (Life Technologies), 20 ng/ml EGF, 0.5 µg/ml Hydrocortisone, 100 ng/ml Cholera toxin, 10 µg/ml insulin all from Sigma-Aldrich and 100 U/ml penicillin, 100 µg/ml streptomycin, and 2 mM L- glutamine (Biological Industries). Cells were grown at 37 °C under a 5% CO2 atmosphere.
S11.2 Cell Viability Assays
Cell viability was evaluated using the methylthiazoletetrazolium (MTT) colorimetric assay. Cancer cells (MCF-7, MDA-MB-231, A549 and SW620) or non-cancerous human cells MCF-10A cells were harvested (10^4 cells/well) in 96-well plates in a final volume of 100 µl and allowed to grow overnight.
After 24 h, vehicle solution (DMSO) or experimental compounds were added at 10 µM (single point experiment) or at different ranging concentrations (0.8-100 µM) to the assay plate and were incubated for 24 or 72 h. Then, 10 µl of MTT (5 mg/ml; Sigma-Aldrich) were added and the plates were incubated for 4 h at 37°C. 100 µl of DMSO (Sigma-Aldrich) were added to dissolve crystals and the reading was taken spectrophotometrically at 570 nm using a multi-well plate reader (Multiskan FC, Thermo Scientific, Waltham, MA, USA). Cell viability and inhibitory concentration (IC) values were obtained using GraphPad Prism v5.0 (Graphpad Software, San Diego, CA, USA). All data are shown as the mean value ± standard deviation (S.D.) of three independent experiments.

[1] = HPTS assay with TBAOH (electrogenic H+ or OH- transport); assay type: biochemical; conditions: sodium gluconate vesicles, pH 7.0; CCCP at 0.1 mol%; perenosins at loading giving 100% in NMDG-Cl assay
Procedure: S10.8. General Procedure for the HPTS Assay
Unilamellar vesicles were prepared using previously reported literature procedures16. A lipid film of POPC (1-palmitoyl-2-oleoyl-sn-glycero-3-phosphocholine) was prepared from a chloroform solution under reduced pressure and then dried under vacuum for 4 or more hours. The lipid film was rehydrated by vortexing with an internal solution containing HPTS (1 mM). The lipid suspension was then subjected to 9 freeze-thaw cycles and left to rest at room temperature for 30 minutes. After this, the suspension was extruded 25 times through a 200 nm polycarbonate membrane resulting in unilamellar vesicles of a mean diameter of 200 nm. The un-encapsulated HPTS was removed by size exclusion chromatography using a sephadex G-25 column and an external solution eluent that does not contain HPTS. […]
After 200 s, detergent (50 μL of Triton X-100 (11 w%) in H2O:DMSO (7:1 v/v)) was added to lyse the vesicles and after 5 mins a final reading was taken. […]
The fractional fluorescence intensity (If) was calculated using: […]
where Rt is the fluorescence ratio at time t, R0 is the fluorescence ratio at time 0 and Rd is the fluorescence ratio at the end of the experiment, after the addition of detergent. […]

[2] = MDA-MB-231, 24 h exposure, read-out: IC50 (24 h)
[3] = MDA-MB-231, 72 h exposure, read-out: IC50 (72 h)

Compound | IC50 (MDA-MB-231 cells; [2]) [µM] | IC50 (MDA-MB-231 cells; [3]) [µM] | H+ or OH- transport (TBAOH base pulse) [1] [%]
Cc1cc(/N=C/c2[nH]c(C)cc2C)c2[nH]ccc2c1 [Perenosin 1c] | 34.4 | 20.4 | –
COc1cc(/N=C/c2[nH]c(C)cc2C)c2[nH]ccc2c1 [Perenosin 1e] | 38.4 | 32.7 | –
Cc1cc(C)c(/C=N/c2cccc3cc[nH]c23)[nH]1 [Perenosin 1a] | 38.3 | 24.4 | –
Cc1cc(C)c(/C=N/c2cc(C(F)(F)F)cc3cc[nH]c23)[nH]1 [Perenosin 1b] | 32.2 | 22.1 | –
N#CC(C#N)=NNc1cccc(Cl)c1 [CCCP] | – | – | 100
